Data from US9809750B2, “Liquid crystal composition” (Nanoegg Research Laboratories, Inc., priority 2009, dated 2017).
One block for each compound: values may come before it.

Procedure: Then, SH556 (phenyl-modified silicone oil) was added to this liquid crystal composition to prepare the liquid crystal composition of the present invention.
(§1) The solubilized concentration (saturated concentration of solubilization) of oil was measured by sample appearance, for example, cloudiness or phase separation.
Then, a mixed oil of SH556 and squalane or a mixed oil of KF50-100CS and squalane was added to the mixed surfactant aqueous solution, thereby preparing the liquid crystal compositions of the present invention. The weight ratio of a phenyl-modified silicone oil (SH556 or KF50-100CS) and squalane is 1:1 in each mixed oil. Moreover, as a comparative example, squalane alone was added to the mixed surfactant aqueous solution to prepare a liquid crystal composition for the comparative example.
The solubilized concentration of oil (mixed oil or squalane) in each liquid crystal composition was evaluated. The solubilized concentration (saturated concentration of solubilization) of oil was measured by sample appearance, for example, cloudiness or phase separation.
Then, a mixed oil of SH556 and squalane was added to each mixed surfactant aqueous solution, thereby preparing the liquid crystal compositions of the present invention. The weight ratio of SH556 and squalane is 1:1 in the mixed oil. Moreover, as comparative examples, squalane alone was added to the mixed surfactant aqueous solutions to prepare liquid crystal compositions for the comparative examples.
(§2) The solubilized concentration of oil (a mixed oil of SH556 and squalane or squalane) in each liquid crystal composition was evaluated. The solubilized concentration (saturated concentration of solubilization) of oil was measured by sample appearance, for example, cloudiness or phase separation.
Then, a mixed oil of SH556 and α-lipoic acid or a mixed oil of SH556 and oleic acid was added to the mixed surfactant aqueous solution, thereby preparing the liquid crystal compositions of the present invention. The weight ratio of SH556 and a fatty acid (α-lipoic acid or oleic acid) is 1:1 in each mixed oil.
as §2, with “α-lipoic acid, a mixed oil of SH556 and oleic acid, α-lipoic acid” for “squalane”, “oleic acid)” for “squalane)”
as §1

solubilized concentration of cetyl isooctanoate: up to 12.96 % by weight
Compound: CCCCCCCCCCCCCCCCOC(=O)CCCCC(C)C [cetyl isooctanoate]

solubilized concentration of oleic acid: up to 11.7 % by weight
Compound: CCCCCCCC/C=C\CCCCCCCC(=O)O [oleic acid]

solubilized concentration of oil: could not be dissolved
solubilized concentration of squalane: up to 3.125 % by weight
Compound: CC(C)CCCC(C)CCCC(C)CCCCC(C)CCCC(C)CCCC(C)C (stereo not drawn) [squalane]

solubilized concentration of oil: at least 25 % by weight
Compound: phenyl trimethicone [SH556]
effect of enhancing solubility of squalane: showed the effect of enhancing solubility of squalane
